In brackets after ≈: the same amount, converted by molar mass.
What was measured:
Assay in all cases: in vitro antibacterial evaluation, MIC by broth dilution
Type in all cases: cell-based
Enterococcus sp. = test system: Enterococcus sp.
Outline: (§1)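 MIC, the lowest antibiotic concentration preventing growth, was read across 64-0.06 μg/mL with 5×10^5 CFU/mL inoculum. Method followed NCCLS M7-A2 broth dilution using Mueller-Hinton II; Gram-positive strains covered recent methicillin-, penicillin- and/or vancomycin-resistant clinical isolates.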

Staphylococcus sp. = test system: Staphylococcus sp.
Outline: as §1

Streptococcus sp. = test system: Streptococcus sp.
Outline: as §1

Escherichia coli = test system: Escherichia coli
Outline: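 MIC is the lowest antibiotic concentration (tested 64-0.06 μg/mL) preventing growth of a 5×10^5 CFU/mL inoculum. Determined by broth dilution in Mueller-Hinton II medium following NCCLS standard M7-A2.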

Structure (SMILES): CC(c1ccccc1)C1NC(=O)CNC(=O)C(CO)NC(=O)C(C(O)C2CNC(=N)N2C2OC(CO)C(O)C(O)C2O)NC(=O)C(C(O)C2CNC(=N)N2)NC(=O)C(Cc2ccc3oc(-c4ccc5c(c4)Cc4ccccc4-5)nc3c2)NC1=O (stereo not drawn) [Example 37, Cyclo[3-[2-(9H-fluoren-2-yl)-1,3-benzoxazol-5-yl]alanyl-3-(2-iminoimidazolidin-4-yl)seryl-3-(3-hexopyranosyl-2-iminoimidazolidin-4-yl)serylserylglycyl-β-methylphenylalanyl]]
- MIC Enterococcus avium (GC 4558) (Enterococcus sp.): 8 µg/mL (≈ 6.9 µM)
- MIC Enterococcus faecalis (ATCC 29212) (Enterococcus sp.): 16 µg/mL (≈ 13.8 µM)
- MIC Enterococcus faecalis (GC 2242) (Enterococcus sp.): 16 µg/mL (≈ 13.8 µM)
- MIC Enterococcus faecalis (GC 2691) (Enterococcus sp.): 16 µg/mL (≈ 13.8 µM)
- MIC Enterococcus faecalis (GC 3059) (Enterococcus sp.): 16 µg/mL (≈ 13.8 µM)
- MIC Enterococcus faecalis (GC 4552) (Enterococcus sp.): 16 µg/mL (≈ 13.8 µM)
- MIC Enterococcus faecalis (GC 4553) (Enterococcus sp.): 4 µg/mL (≈ 3.45 µM)
- MIC Enterococcus faecalis (GC 4554) (Enterococcus sp.): 16 µg/mL (≈ 13.8 µM)
- MIC Enterococcus faecalis (GC 6189) (Enterococcus sp.): 16 µg/mL (≈ 13.8 µM)
- MIC Enterococcus faecium (GC 2243) (Enterococcus sp.): 8 µg/mL (≈ 6.9 µM)
- MIC Enterococcus faecium (GC 4556) (Enterococcus sp.): 16 µg/mL (≈ 13.8 µM)
- MIC Enterococcus faecium (GC 4557) (Enterococcus sp.): 4 µg/mL (≈ 3.45 µM)
- MIC Coagulase Negative Staphylococcus (GC 4547) (Staphylococcus sp.): 16 µg/mL (≈ 13.8 µM)
- MIC Coagulase Negative Staphylococcus (GC 4548) (Staphylococcus sp.): 8 µg/mL (≈ 6.9 µM)
- MIC Coagulase Negative Staphylococcus (GC 4549) (Staphylococcus sp.): 8 µg/mL (≈ 6.9 µM)
- MIC Coagulase Negative Staphylococcus (GC 4551) (Staphylococcus sp.): 8 µg/mL (≈ 6.9 µM)
- MIC Coagulase Negative Staphylococcus (GC 6257) (Staphylococcus sp.): 4 µg/mL (≈ 3.45 µM)
- MIC Staphylococcus aureus (ATCC 29213) (Staphylococcus sp.): 16 µg/mL (≈ 13.8 µM)
- MIC Staphylococcus aureus (GC 1131) (Staphylococcus sp.): 8 µg/mL (≈ 6.9 µM)
- MIC Staphylococcus aureus (GC 3051) (Staphylococcus sp.): 8 µg/mL (≈ 6.9 µM)
- MIC Staphylococcus aureus (GC 3053) (Staphylococcus sp.): 8 µg/mL (≈ 6.9 µM)
- MIC Staphylococcus aureus (GC 4541) (Staphylococcus sp.): 8 µg/mL (≈ 6.9 µM)
- MIC Staphylococcus aureus (GC 4542) (Staphylococcus sp.): 8 µg/mL (≈ 6.9 µM)
- MIC Staphylococcus aureus (GC 4544) (Staphylococcus sp.): 8 µg/mL (≈ 6.9 µM)
- MIC Staphylococcus aureus (GC 4545) (Staphylococcus sp.): 16 µg/mL (≈ 13.8 µM)
- MIC Staphylococcus aureus-SMITH (GC 4543) (Staphylococcus sp.): 8 µg/mL (≈ 6.9 µM)
- MIC Staphylococcus haemolyticus (GC 4546) (Staphylococcus sp.): 8 µg/mL (≈ 6.9 µM)
- MIC Streptococcus agalactiae (GC 4564) (Streptococcus sp.): 16 µg/mL (≈ 13.8 µM)
- MIC Streptococcus pneumoniae (ATCC 6301) (Streptococcus sp.): 32 µg/mL (≈ 27.6 µM)
- MIC Streptococcus pneumoniae (GC 1894) (Streptococcus sp.): 16 µg/mL (≈ 13.8 µM)
- MIC Streptococcus pneumoniae (GC 4565) (Streptococcus sp.): 16 µg/mL (≈ 13.8 µM)
- MIC Streptococcus pyogenes (GC 4563) (Streptococcus sp.): 4 µg/mL (≈ 3.45 µM)
- MIC Escherichia coli (ATCC 25922) (Escherichia coli): 128 µg/mL (≈ 110 µM)
- MIC Escherichia coli (GC 4559) (Escherichia coli): >128 µg/mL
- MIC Escherichia coli (GC 4560) (Escherichia coli): 4 µg/mL (≈ 3.45 µM)

— patent US6914045B2, “Glycopeptide antibiotics” (Wyeth Holdings Corporation, priority 2001, dated 2005)
